From paper PMC9504985, “Identification of Novel Aryl Carboxamide Derivatives as Death-Associated Protein Kinase 1 (DAPK1) Inhibitors with Anti-Proliferative Activities: Design, Synthesis, In Vitro, and In Silico Biological Studies” (Pharmaceuticals, 2022)

target: T1, Death-associated protein kinase 1 (DAPK1) (Homo sapiens, UniProt P53355); assay: 10-dose kinase assay (Reaction Biology HotSpot); type: biochemical; details: not given
T1 sequence (P53355 whole entry): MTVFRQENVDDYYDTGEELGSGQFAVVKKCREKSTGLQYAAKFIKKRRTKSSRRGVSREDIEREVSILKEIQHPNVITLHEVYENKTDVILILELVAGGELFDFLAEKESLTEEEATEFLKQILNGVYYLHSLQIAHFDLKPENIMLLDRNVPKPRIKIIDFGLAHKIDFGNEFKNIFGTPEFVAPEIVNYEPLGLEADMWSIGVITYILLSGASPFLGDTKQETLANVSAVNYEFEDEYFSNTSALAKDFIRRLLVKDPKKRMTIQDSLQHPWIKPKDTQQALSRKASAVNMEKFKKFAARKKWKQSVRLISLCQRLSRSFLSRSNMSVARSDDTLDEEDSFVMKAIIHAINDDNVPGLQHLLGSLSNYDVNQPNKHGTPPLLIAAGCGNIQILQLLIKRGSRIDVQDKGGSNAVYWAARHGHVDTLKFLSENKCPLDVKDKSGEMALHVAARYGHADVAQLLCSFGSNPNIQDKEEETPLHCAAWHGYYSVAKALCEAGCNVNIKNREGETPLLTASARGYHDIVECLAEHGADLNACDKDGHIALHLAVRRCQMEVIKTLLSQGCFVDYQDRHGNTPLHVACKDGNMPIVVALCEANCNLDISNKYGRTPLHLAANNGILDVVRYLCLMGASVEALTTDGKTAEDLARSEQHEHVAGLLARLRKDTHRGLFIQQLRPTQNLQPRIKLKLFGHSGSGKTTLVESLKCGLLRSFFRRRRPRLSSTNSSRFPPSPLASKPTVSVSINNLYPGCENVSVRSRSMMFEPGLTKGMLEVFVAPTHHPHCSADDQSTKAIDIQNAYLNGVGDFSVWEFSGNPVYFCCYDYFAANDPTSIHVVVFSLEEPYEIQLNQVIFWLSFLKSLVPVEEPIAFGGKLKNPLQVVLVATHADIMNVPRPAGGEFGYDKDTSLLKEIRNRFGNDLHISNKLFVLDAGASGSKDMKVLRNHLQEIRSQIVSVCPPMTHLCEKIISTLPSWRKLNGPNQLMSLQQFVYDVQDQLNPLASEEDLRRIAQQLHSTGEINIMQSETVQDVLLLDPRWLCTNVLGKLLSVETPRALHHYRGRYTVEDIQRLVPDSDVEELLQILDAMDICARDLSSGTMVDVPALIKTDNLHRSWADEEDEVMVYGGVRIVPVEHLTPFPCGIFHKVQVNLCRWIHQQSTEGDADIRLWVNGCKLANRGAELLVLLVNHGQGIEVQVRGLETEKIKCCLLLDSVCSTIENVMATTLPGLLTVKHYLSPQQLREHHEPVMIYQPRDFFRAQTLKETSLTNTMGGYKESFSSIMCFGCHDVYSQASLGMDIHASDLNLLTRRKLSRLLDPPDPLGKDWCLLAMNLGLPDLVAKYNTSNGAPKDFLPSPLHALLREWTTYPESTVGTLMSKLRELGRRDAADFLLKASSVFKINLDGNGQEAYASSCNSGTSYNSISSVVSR

First: O=C(Nc1ccc(Oc2ccc(F)cc2)c(Cl)c1)c1ccccn1 [4h, N-(3-chloro-4-(4-fluorophenoxy)phenyl) picolinamide]
Second: O=C(Nc1ccc(Oc2ccc(F)cc2)c(Cl)c1)c1cccnc1 [4j, N-(3-chloro-4-(4-fluorophenoxy)phenyl) nicotinamide]
The IC50 of the first is 4-fold higher: 6.81 µM for the first, 1.7 µM for the second. The second is the more potent here.

Compared with `O=C(Nc1ccc(Oc2ccc(F)cc2)c(Cl)c1)c1ccncc1` [4k, N-(3-chloro-4-(4-fluorophenoxy)phenyl) isonicotinamide], `O=C(Nc1ccc(Oc2cccc(Cl)c2)c(Cl)c1)c1ccncc1` [4q, N-(3-chloro-4-(3-chlorophenoxy)phenyl) isonicotinamide] is 6.7-fold lower in IC50: 7.26 µM for the first, 1.09 µM for the second. The second is the more potent here.

target: T1, Death-associated protein kinase 1 (DAPK1); assay: single-dose kinase assay, % inhibition at […]; type: biochemical; details: read-out: % Inhibition against DAPK1 ^a

Going from `O=C(Nc1ccc(Oc2cccc(Cl)c2)c(Cl)c1)c1ccccn1` [4m, N-(3-chloro-4-(3-chlorophenoxy)phenyl) picolinamide] to `O=C(Nc1ccc(Oc2cccc(Cl)c2)c(Cl)c1)c1cccnn1` [4n, N-(3-chloro-4-(3-chlorophenoxy)phenyl) pyridazine-3-carboxamide], the inhibition at 10 µM falls from 61.7% to 61.5%.

First: O=C(Nc1ccc(Oc2cccc(Cl)c2)c(Cl)c1)c1cccnc1 [4p, N-(3-chloro-4-(3-chlorophenoxy)phenyl) nicotinamide]
Second: O=C(Nc1ccc(Oc2cccc(Cl)c2)c(Cl)c1)c1ccnnc1 [4r, N-(3-chloro-4-(3-chlorophenoxy)phenyl) pyridazine-4-carboxamide]
The inhibition at 10 µM of the first is higher: 61.5% for the first, 60% for the second.
